Test results reported in US9695155B2, “Herbicidal substituted pyrimidinyloxy benzene compounds” (E. I. DU PONT DE NEMOURS AND COMPANY, priority 2013, dated 2017).

Assays:
[1] = tested on: large (Lg) crabgrass; assay: Test A preemergence; assay type: in vivo, Digitaria sanguinalis; conditions: for Crabgrass, Large plant response rating: 500 g ai/ha
In short: (§1)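 Compounds in non-phytotoxic solvent with surfactant applied as soil spray preemergence, or postemergence to plants 2-10 cm at one- to two-leaf stage, in loam/sand. After approximately 10 days in greenhouse, injury rated visually versus untreated controls, 0 (no effect) to 100 (complete control).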

[2] = tested on: velvetleaf; assay: Test A preemergence; assay type: in vivo, Abutilon theophrasti; conditions: for Velvetleaf plant response rating (0 to 100 scale): 125 g ai/ha; for Velvetleaf plant response rating: 500 g ai/ha, 0 to 100 scale where 0 is no effect and 100 is complete control
In short: as §1

[3] = tested on: corn; assay: Test A preemergence; assay type: in vivo, Zea mays; conditions: for Corn plant response rating: 500 g ai/ha
In short: as §1

[4] = tested on: barnyardgrass; assay: Test A postemergence; assay type: in vivo, Echinochloa crus-galli; conditions: 0 to 100 scale where 0 is no effect and 100 is complete control; for Barnyardgrass plant response rating: 125 g ai/ha; for Plant response rating, Barnyardgrass: 500 g ai/ha
In short: as §1

[5] = tested on: giant foxtail; assay: Test A postemergence; assay type: in vivo, Setaria faberii; conditions: 0 to 100 scale where 0 is no effect and 100 is complete control; for Foxtail, Giant plant response rating: 125 g ai/ha; for Plant response rating, Foxtail, Giant: 500 g ai/ha
In short: as §1

[6] = tested on: morningglory; assay: Test A postemergence; assay type: in vivo, Ipomoea spp.; conditions: 0 to 100 scale where 0 is no effect and 100 is complete control; for Morningglory plant response rating: 125 g ai/ha; for Plant response rating, Morningglory: 500 g ai/ha
In short: as §1

[7] = tested on: corn; assay: Test A postemergence; assay type: in vivo, Zea mays; conditions: 0 to 100 scale where 0 is no effect and 100 is complete control; for Corn plant response rating: 125 g ai/ha; for Plant response rating, Corn: 500 g ai/ha
In short: as §1

[8] = tested on: Heteranthera limosa; assay: Test B flooded paddy test; assay type: in vivo; conditions: Flood, 250 g ai/ha; 0 to 100 scale where 0 is no effect and 100 is complete control
In short: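 2-leaf stage plants; pots flooded to 3 cm, compound added to paddy water, depth maintained. Greenhouse 13–15 d. Visual rating vs untreated controls, 0 (no effect) to 100 (complete control); dash = no result.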

[9] = tested on: corn; assay: Test C postemergence; assay type: in vivo, Zea mays; conditions: for Plant response rating (0 to 100), Corn: 16 g ai/ha, 0 is no effect, 100 is complete control; for Corn plant response rating: 31 g ai/ha; for Corn plant response rating / Plant response rating, Corn: scale 0 to 100 (0 no effect, 100 complete control)
In short: (§2)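 Visual injury score versus untreated controls, 0 = no effect, 100 = complete control, taken 13 to 15 days after treatment in the greenhouse. Pre-emergence pots held loam/sand; post-emergence plants grew in sphagnum peat/vermiculite mix and were sprayed at the 1- to 4-leaf stage.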

[10] = tested on: giant foxtail; assay: Test C postemergence; assay type: in vivo, Setaria faberii; conditions: for Plant response rating (0 to 100), Foxtail, Giant: 16 g ai/ha, 0 is no effect, 100 is complete control; for Foxtail, Giant plant response rating: 31 g ai/ha; for Foxtail, Giant plant response rating / Plant response rating, Foxtail, Giant: scale 0 to 100 (0 no effect, 100 complete control)
In short: as §2

[11] = tested on: johnsongrass; assay: Test C postemergence; assay type: in vivo, Sorghum halepense; conditions: for Plant response rating (0 to 100), Johnsongrass: 16 g ai/ha, 0 is no effect, 100 is complete control; for Johnsongrass plant response rating: 31 g ai/ha; for Johnsongrass plant response rating / Plant response rating, Johnsongrass: scale 0 to 100 (0 no effect, 100 complete control)
In short: as §2

[12] = tested on: morningglory; assay: Test C postemergence; assay type: in vivo, Ipomoea coccinea; conditions: for Plant response rating (0 to 100), Morningglory: 16 g ai/ha, 0 is no effect, 100 is complete control; for Morningglory plant response rating: 31 g ai/ha; for Morningglory plant response rating / Plant response rating, Morningglory: scale 0 to 100 (0 no effect, 100 complete control)
In short: as §2

[13] = tested on: pigweed; assay: Test C postemergence; assay type: in vivo, Amaranthus retroflexus; conditions: for Plant response rating (0 to 100), Pigweed: 16 g ai/ha, 0 is no effect, 100 is complete control; for Pigweed plant response rating: 31 g ai/ha; for Pigweed plant response rating / Plant response rating, Pigweed: scale 0 to 100 (0 no effect, 100 complete control)
In short: as §2

[14] = tested on: oilseed rape; assay: Test C postemergence; assay type: in vivo, Brassica napus; conditions: for Plant response rating (0 to 100), Oilseed Rape: 16 g ai/ha, 0 is no effect, 100 is complete control; for Oilseed Rape plant response rating: 31 g ai/ha; for Oilseed Rape plant response rating / Plant response rating, Oilseed Rape: scale 0 to 100 (0 no effect, 100 complete control)
In short: as §2

[15] = tested on: waterhemp; assay: Test C postemergence; assay type: in vivo, Amaranthus rudis; conditions: for Plant response rating (0 to 100), Waterhemp: 16 g ai/ha, 0 is no effect, 100 is complete control; for Waterhemp plant response rating: 31 g ai/ha; for Waterhemp plant response rating / Plant response rating, Waterhemp: scale 0 to 100 (0 no effect, 100 complete control)
In short: as §2

[16] = tested on: velvetleaf; assay: Test C postemergence; assay type: in vivo, Abutilon theophrasti; conditions: for Plant response rating (0 to 100), Velvetleaf: 16 g ai/ha, 0 is no effect, 100 is complete control; for Velvetleaf plant response rating: 31 g ai/ha; for Velvetleaf plant response rating / Plant response rating, Velvetleaf: scale 0 to 100 (0 no effect, 100 complete control)
In short: as §2

[17] = 0 to 100 scale where 0 is no effect and 100 is complete control
[18] = postemergence, visual rating, 13 to 15 days
[19] = 125 g ai/ha, postemergence, visual rating
[20] = Postemergence, 62 g ai/ha, 13 to 15 days
[21] = 125 g ai/ha, 0 to 100 scale where 0 is no effect and 100 is complete control

FC(F)c1cnn(-c2c(Cl)cccc2Oc2ncc(Cl)cn2)c1 [Compound 192]
Crabgrass, Large plant response rating (0 to 100 scale) ([1]; 125 g ai/ha): 100 | Crabgrass, Large plant response rating [1, 17]: 100 | Velvetleaf plant response rating (0 to 100 scale) [2]: 90 | Velvetleaf plant response rating [2]: 100 | Corn plant response rating (0 to 100 scale) ([3]; 125 g ai/ha): 0 | Corn plant response rating [3, 17]: 50 | Barnyardgrass plant response rating [4]: 60 | Plant response rating, Barnyardgrass [4]: 90 | Foxtail, Giant plant response rating [5]: 70 | Plant response rating, Foxtail, Giant [5]: 90 | Morningglory plant response rating [6]: 80 | Plant response rating, Morningglory [6]: 100 | Corn plant response rating [7]: 10 | Plant response rating, Corn [7]: 60 | Plant response rating, Ducksalad [8]: 90 | Plant response rating (0 to 100), Corn ([9]; postemergence): 0 | Corn plant response rating [9, 18]: 5 | Plant response rating, Corn [9, 19]: 5 | Plant response rating, Corn [9, 20]: 5 | Plant response rating (0 to 100), Foxtail, Giant ([10]; postemergence): 5 | Foxtail, Giant plant response rating [10, 18]: 5 | Plant response rating, Foxtail, Giant [10, 19]: 10 | Plant response rating, Foxtail, Giant [10, 20]: 5 | Plant response rating (0 to 100), Johnsongrass ([11]; postemergence): 5 | Johnsongrass plant response rating [11, 18]: 10 | Plant response rating, Johnsongrass [11, 19]: 10 | Plant response rating, Johnsongrass [11, 20]: 5 | Plant response rating (0 to 100), Morningglory ([12]; postemergence): 30 | Morningglory plant response rating [12, 18]: 50 | Plant response rating, Morningglory [12, 19]: 35 | Plant response rating, Morningglory [12, 20]: 35 | Plant response rating (0 to 100), Pigweed ([13]; postemergence): 60 | Pigweed plant response rating [13, 18]: 65 | Plant response rating, Pigweed [13, 19]: 70 | Plant response rating, Pigweed [13, 20]: 80 | Plant response rating (0 to 100), Oilseed Rape ([14]; postemergence): 10 | Oilseed Rape plant response rating [14, 18]: 5 | Plant response rating, Oilseed Rape [14, 19]: 60 | Plant response rating, Oilseed Rape [14, 20]: 60 | Plant response rating (0 to 100), Waterhemp ([15]; postemergence): 40 | Waterhemp plant response rating [15, 18]: 50 | Plant response rating, Waterhemp [15, 19]: 85 | Plant response rating, Waterhemp [15, 20]: 65 | Plant response rating (0 to 100), Velvetleaf ([16]; postemergence): 35 | Velvetleaf plant response rating [16, 18]: 60 | Plant response rating, Velvetleaf [16, 19]: 75 | Plant response rating, Velvetleaf [16, 20]: 65

Fc1cccc(Oc2ncc(Cl)cn2)c1-n1cc(Cl)cn1 [Compound 177]
Plant response rating, Crabgrass, Large [1, 21]: 100 | Crabgrass, Large plant response rating [1, 17]: 100 | Velvetleaf plant response rating (0 to 100 scale) [2]: 80 | Velvetleaf plant response rating [2]: 100 | Plant response rating, Corn [3, 21]: 0 | Corn plant response rating [3, 17]: 50 | Barnyardgrass plant response rating [4]: 40 | Plant response rating, Barnyardgrass [4]: 100 | Foxtail, Giant plant response rating [5]: 80 | Plant response rating, Foxtail, Giant [5]: 100 | Morningglory plant response rating [6]: 90 | Plant response rating, Morningglory [6]: 100 | Corn plant response rating [7]: 40 | Plant response rating, Corn [7]: 70 | Plant response rating, Ducksalad [8]: 90 | Plant response rating (0 to 100), Corn ([9]; postemergence): 5 | Corn plant response rating [9, 18]: 5 | Plant response rating, Corn [9, 19]: 10 | Plant response rating, Corn ([9]; Postemergence, 62 g ai/ha): 10 | Plant response rating (0 to 100), Foxtail, Giant ([10]; postemergence): 5 | Foxtail, Giant plant response rating [10, 18]: 10 | Plant response rating, Foxtail, Giant [10, 19]: 20 | Plant response rating, Foxtail, Giant ([10]; Postemergence, 62 g ai/ha): 10 | Plant response rating (0 to 100), Johnsongrass ([11]; postemergence): 5 | Johnsongrass plant response rating [11, 18]: 5 | Plant response rating, Johnsongrass [11, 19]: 10 | Plant response rating, Johnsongrass ([11]; Postemergence, 62 g ai/ha): 5 | Plant response rating (0 to 100), Morningglory ([12]; postemergence): 20 | Morningglory plant response rating [12, 18]: 10 | Plant response rating, Morningglory [12, 19]: 85 | Plant response rating, Morningglory ([12]; Postemergence, 62 g ai/ha): 80 | Plant response rating (0 to 100), Pigweed ([13]; postemergence): 75 | Pigweed plant response rating [13, 18]: 80 | Plant response rating, Pigweed [13, 19]: 95 | Plant response rating, Pigweed ([13]; Postemergence, 62 g ai/ha): 85 | Plant response rating (0 to 100), Oilseed Rape ([14]; postemergence): 60 | Oilseed Rape plant response rating [14, 18]: 80 | Plant response rating, Oilseed Rape [14, 19]: 90 | Plant response rating, Oilseed Rape ([14]; Postemergence, 62 g ai/ha): 90 | Plant response rating (0 to 100), Waterhemp ([15]; postemergence): 70 | Waterhemp plant response rating [15, 18]: 75 | Plant response rating, Waterhemp [15, 19]: 100 | Plant response rating, Waterhemp ([15]; Postemergence, 62 g ai/ha): 95 | Plant response rating (0 to 100), Velvetleaf ([16]; postemergence): 50 | Velvetleaf plant response rating [16, 18]: 70 | Plant response rating, Velvetleaf [16, 19]: 80 | Plant response rating, Velvetleaf ([16]; Postemergence, 62 g ai/ha): 70
